# Measured values taken from US11718604B2, “4-amino-6-(1,3-benzodioxole)picolinates and their use as herbicides” (Dow AgroSciences LLC, priority 2018, dated 2023).
# Key:
# Assay type in all cases: in vivo
# [1] = tested on: IPOHE: ivyleaf morningglory (Ipomoea hederacea); test: Post-emergent herbicidal test, ivyleaf morningglory; conditions: post-emergence, 336 h, 14 days after application, read-out: Visual Growth Reduction (%) 14 Days After Application IPOHE; for pest or weed control at 17.5 g/ha: 17.5 g ai/ha; for pest or weed control at 35 g/ha: 35 g ai/ha; for pest or weed control at 70 g/ha: 70 g ai/ha; for pest or weed control at 140 g/ha: 140 g ai/ha
# Method in brief: (§1)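 Scores reflect visual injury (0–100%) at 14 d post-spray on young plants treated at the 1st/2nd true leaf stage. Greenhouse held at about 23-29° C day and 22-28° C night; spray volume 187 L/ha, with solvent-blank controls.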
# [2] = tested on: EPHHL: wild poinsettia (Euphorbia heterophylla); test: Post-emergent herbicidal test, wild poinsettia; conditions: post-emergence, 336 h, 14 days after application, read-out: Visual Growth Reduction (%) 14 Days After Application EPHHL; for pest or weed control at 17.5 g/ha: 17.5 g ai/ha; for pest or weed control at 35 g/ha: 35 g ai/ha; for pest or weed control at 70 g/ha: 70 g ai/ha; for pest or weed control at 140 g/ha: 140 g ai/ha
# Method in brief: as §1
# [3] = tested on: SETFA: giant foxtail (Setaria faberi); test: Post-emergent herbicidal test, giant foxtail; conditions: post-emergence, 336 h, 14 days after application, read-out: Visual Growth Reduction (%) 14 Days After Application SETFA; for pest or weed control at 17.5 g/ha: 17.5 g ai/ha; for pest or weed control at 35 g/ha: 35 g ai/ha; for pest or weed control at 70 g/ha: 70 g ai/ha; for pest or weed control at 140 g/ha: 140 g ai/ha
# Method in brief: as §1
# [4] = tested on: DIGSA: large crabgrass (Digitaria sanguinalis); test: Post-emergent herbicidal test, large crabgrass; conditions: post-emergence, 336 h, 14 days after application, read-out: Visual Growth Reduction (%) 14 Days After Application DIGSA; for pest or weed control at 17.5 g/ha: 17.5 g ai/ha; for pest or weed control at 35 g/ha: 35 g ai/ha; for pest or weed control at 70 g/ha: 70 g ai/ha; for pest or weed control at 140 g/ha: 140 g ai/ha
# Method in brief: as §1
# [5] = tested on: CIRAR: Canada thistle (Cirsium arvense); test: Post-emergent herbicidal test, Canada thistle; conditions: post-emergence, 336 h, 14 days after application, read-out: Visual Growth Reduction (%) 14 Days After Application CIRAR; for pest or weed control at 17.5 g/ha: 17.5 g ai/ha; for pest or weed control at 35 g/ha: 35 g ai/ha; for pest or weed control at 70 g/ha: 70 g ai/ha; for pest or weed control at 140 g/ha: 140 g ai/ha
# Method in brief: as §1
# [6] = tested on: ECHCG: barnyardgrass (Echinochloa crus-galli); test: Post-emergent herbicidal test, barnyardgrass; conditions: post-emergence, 336 h, 14 days after application, read-out: Visual Growth Reduction (%) 14 Days After Application ECHCG; for pest or weed control at 17.5 g/ha: 17.5 g ai/ha; for pest or weed control at 35 g/ha: 35 g ai/ha; for pest or weed control at 70 g/ha: 70 g ai/ha; for pest or weed control at 140 g/ha: 140 g ai/ha
# Method in brief: as §1
# [7] = tested on: SORVU: shattercane (Sorghum bicolor); test: Post-emergent herbicidal test, shattercane; conditions: post-emergence, 336 h, 14 days after application, read-out: Visual Growth Reduction (%) 14 Days After Application SORVU; for pest or weed control at 17.5 g/ha: 17.5 g ai/ha; for pest or weed control at 35 g/ha: 35 g ai/ha; for pest or weed control at 70 g/ha: 70 g ai/ha; for pest or weed control at 140 g/ha: 140 g ai/ha
# Method in brief: as §1
# [8] = tested on: CYPES: yellow nutsedge (Cyperus esculentus); test: Post-emergent herbicidal test, yellow nutsedge; conditions: post-emergence, 336 h, 14 days after application, read-out: Visual Growth Reduction (%) 14 Days After Application CYPES; for pest or weed control at 17.5 g/ha: 17.5 g ai/ha; for pest or weed control at 35 g/ha: 35 g ai/ha; for pest or weed control at 70 g/ha: 70 g ai/ha; for pest or weed control at 140 g/ha: 140 g ai/ha
# Method in brief: as §1
# [9] = tested on: ABUTH: velvetleaf (Abutilon theophrasti); test: Post-emergent herbicidal test, velvetleaf; conditions: post-emergence, 336 h, 14 days after application, read-out: Visual Growth Reduction (%) 14 Days After Application ABUTH; for pest or weed control at 17.5 g/ha: 17.5 g ai/ha; for pest or weed control at 35 g/ha: 35 g ai/ha; for pest or weed control at 70 g/ha: 70 g ai/ha; for pest or weed control at 140 g/ha: 140 g ai/ha
# Method in brief: as §1
# [10] = tested on: BRSNN: oilseed rape, canola (Brassica napus); test: Post-emergent herbicidal test, oilseed rape; conditions: post-emergence, 336 h, 14 days after application, read-out: Visual Growth Reduction (%) 14 Days After Application BRSNN; for pest or weed control at 17.5 g/ha: 17.5 g ai/ha; for pest or weed control at 35 g/ha: 35 g ai/ha; for pest or weed control at 70 g/ha: 70 g ai/ha; for pest or weed control at 140 g/ha: 140 g ai/ha
# Method in brief: as §1
# [11] = tested on: VIOTR: wild violet (Viola tricolor); test: Post-emergent herbicidal test, wild violet; conditions: post-emergence, 336 h, 14 days after application, read-out: Visual Growth Reduction (%) 14 Days After Application VIOTR; for pest or weed control at 17.5 g/ha: 17.5 g ai/ha; for pest or weed control at 35 g/ha: 35 g ai/ha; for pest or weed control at 70 g/ha: 70 g ai/ha; for pest or weed control at 140 g/ha: 140 g ai/ha
# Method in brief: as §1
structure (smiles),measurement,setting,value
COC(=O)c1nc(-c2ccc(F)c3c2OC(F)(F)O3)c(F)c(N)c1Cl [Compound 7],pest or weed control at 17.5 g/ha,[1],0%
same,pest or weed control at 35 g/ha,[1],0%
same,pest or weed control at 70 g/ha,[1],0%
same,pest or weed control at 140 g/ha,[1],0%
same,pest or weed control at 17.5 g/ha,[2],0%
same,pest or weed control at 35 g/ha,[2],0%
same,pest or weed control at 70 g/ha,[2],10%
same,pest or weed control at 140 g/ha,[2],20%
same,pest or weed control at 17.5 g/ha,[3],0%
same,pest or weed control at 35 g/ha,[3],0%
same,pest or weed control at 70 g/ha,[3],0%
same,pest or weed control at 140 g/ha,[3],10%
same,pest or weed control at 17.5 g/ha,[4],0%
same,pest or weed control at 35 g/ha,[4],0%
same,pest or weed control at 70 g/ha,[4],0%
same,pest or weed control at 140 g/ha,[4],0%
same,pest or weed control at 17.5 g/ha,[5],60%
same,pest or weed control at 35 g/ha,[5],70%
same,pest or weed control at 70 g/ha,[5],75%
same,pest or weed control at 140 g/ha,[5],80%
same,pest or weed control at 17.5 g/ha,[6],0%
same,pest or weed control at 35 g/ha,[6],0%
same,pest or weed control at 70 g/ha,[6],0%
same,pest or weed control at 140 g/ha,[6],0%
same,pest or weed control at 17.5 g/ha,[7],0%
same,pest or weed control at 35 g/ha,[7],0%
same,pest or weed control at 70 g/ha,[7],0%
same,pest or weed control at 140 g/ha,[7],0%
same,pest or weed control at 17.5 g/ha,[8],0%
same,pest or weed control at 35 g/ha,[8],10%
same,pest or weed control at 70 g/ha,[8],30%
same,pest or weed control at 140 g/ha,[8],40%
same,pest or weed control at 17.5 g/ha,[9],50%
same,pest or weed control at 35 g/ha,[9],70%
same,pest or weed control at 70 g/ha,[9],75%
same,pest or weed control at 140 g/ha,[9],85%
same,pest or weed control at 17.5 g/ha,[10],50%
same,pest or weed control at 35 g/ha,[10],60%
same,pest or weed control at 70 g/ha,[10],80%
same,pest or weed control at 140 g/ha,[10],85%
same,pest or weed control at 17.5 g/ha,[11],5%
same,pest or weed control at 35 g/ha,[11],10%
same,pest or weed control at 70 g/ha,[11],40%
same,pest or weed control at 140 g/ha,[11],50%
COC(=O)c1nc(-c2ccc(Br)c3c2OC(F)(F)O3)c(F)c(N)c1Cl [Compound 9],pest or weed control at 17.5 g/ha,[1],0%
same,pest or weed control at 35 g/ha,[1],0%
same,pest or weed control at 70 g/ha,[1],0%
same,pest or weed control at 140 g/ha,[1],0%
same,pest or weed control at 17.5 g/ha,[2],0%
same,pest or weed control at 35 g/ha,[2],0%
same,pest or weed control at 70 g/ha,[2],0%
same,pest or weed control at 140 g/ha,[2],0%
same,pest or weed control at 17.5 g/ha,[3],0%
same,pest or weed control at 35 g/ha,[3],0%
same,pest or weed control at 70 g/ha,[3],0%
same,pest or weed control at 140 g/ha,[3],0%
same,pest or weed control at 17.5 g/ha,[4],0%
same,pest or weed control at 35 g/ha,[4],0%
same,pest or weed control at 70 g/ha,[4],0%
same,pest or weed control at 140 g/ha,[4],0%
same,pest or weed control at 17.5 g/ha,[5],70%
same,pest or weed control at 35 g/ha,[5],80%
same,pest or weed control at 70 g/ha,[5],85%
same,pest or weed control at 140 g/ha,[5],85%
same,pest or weed control at 17.5 g/ha,[6],0%
same,pest or weed control at 35 g/ha,[6],0%
same,pest or weed control at 70 g/ha,[6],0%
same,pest or weed control at 140 g/ha,[6],0%
same,pest or weed control at 17.5 g/ha,[7],0%
same,pest or weed control at 35 g/ha,[7],0%
same,pest or weed control at 70 g/ha,[7],10%
same,pest or weed control at 140 g/ha,[7],10%
same,pest or weed control at 17.5 g/ha,[8],0%
same,pest or weed control at 35 g/ha,[8],0%
same,pest or weed control at 70 g/ha,[8],0%
same,pest or weed control at 140 g/ha,[8],0%
same,pest or weed control at 17.5 g/ha,[9],80%
same,pest or weed control at 35 g/ha,[9],85%
same,pest or weed control at 70 g/ha,[9],85%
same,pest or weed control at 140 g/ha,[9],85%
same,pest or weed control at 17.5 g/ha,[10],60%
same,pest or weed control at 35 g/ha,[10],60%
same,pest or weed control at 70 g/ha,[10],75%
same,pest or weed control at 140 g/ha,[10],75%
same,pest or weed control at 17.5 g/ha,[11],0%
same,pest or weed control at 35 g/ha,[11],0%
same,pest or weed control at 70 g/ha,[11],20%
same,pest or weed control at 140 g/ha,[11],20%
